From patent publication US8557839B2, “Fused ring azadecalin glucocorticoid receptor modulators” (Corcept Therapeutics, Inc., priority 2004, dated 2013)
pKi: −log10 of the molar value.

Assays:
glucocorticoid receptors [1] = target: T1, glucocorticoid receptors (Homo sapiens, UniProt P04150); assay: Glucocorticoid receptor binding displacement assay with 3H-dexamethasone; design: This GR was a full-length steroid hormone receptor; host or cells: recombinant baculovirus-infected insect cells
T1 sequence (P04150 1-777): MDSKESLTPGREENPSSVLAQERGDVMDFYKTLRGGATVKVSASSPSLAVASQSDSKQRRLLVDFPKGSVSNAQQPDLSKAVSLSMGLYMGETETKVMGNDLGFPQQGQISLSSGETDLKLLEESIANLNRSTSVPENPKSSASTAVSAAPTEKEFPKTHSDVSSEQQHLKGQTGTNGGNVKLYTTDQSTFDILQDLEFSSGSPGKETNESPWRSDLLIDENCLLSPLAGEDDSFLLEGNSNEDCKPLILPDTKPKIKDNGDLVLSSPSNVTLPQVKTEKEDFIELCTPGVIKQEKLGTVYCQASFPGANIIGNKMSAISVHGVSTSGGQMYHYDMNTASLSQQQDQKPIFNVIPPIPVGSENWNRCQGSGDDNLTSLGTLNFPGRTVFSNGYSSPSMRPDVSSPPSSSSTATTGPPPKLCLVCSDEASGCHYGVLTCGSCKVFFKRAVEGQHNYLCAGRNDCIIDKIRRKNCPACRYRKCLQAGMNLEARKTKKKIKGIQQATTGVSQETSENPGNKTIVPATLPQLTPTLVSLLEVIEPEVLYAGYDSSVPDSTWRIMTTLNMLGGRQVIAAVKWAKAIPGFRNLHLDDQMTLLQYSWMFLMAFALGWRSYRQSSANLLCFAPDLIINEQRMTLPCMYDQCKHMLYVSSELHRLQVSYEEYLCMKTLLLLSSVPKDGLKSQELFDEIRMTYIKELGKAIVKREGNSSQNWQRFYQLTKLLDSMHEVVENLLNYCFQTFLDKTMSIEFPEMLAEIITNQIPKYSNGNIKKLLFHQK
Experimental: The source of the receptor was recombinant baculovirus-infected insect cells. This GR was a full-length steroid hormone receptor likely to be associated with heat-shock and other endogenous proteins.
For the Primary Screen, test compounds were tested at 1 μM in duplicate. These compounds were diluted from 10 mM stock in 100% DMSO. After dilution to 100 μM, 5 μl were added to 245 μl assay buffer to obtained 2 μM compound and 2% DMSO.
For the IC50 determinations, test compounds were tested at 6 concentrations in duplicate (concentration range depends on % inhibition binding that was obtained in the Primary Screen). Test compounds were diluted from 10 mM stock in 100% DMSO. The tested solutions were prepared at 2× final assay concentration in 2% DMSO/assay buffer.
All reagents and the assay plate were kept on ice during the addition of reagents. […] After the additions, the incubation mixture was mixed and incubated for 2.5 hrs at 4° C.
After 2.5 hrs incubation, unbound counts were removed with dextran coated charcoal (DCC) as follows: 25 μl of DCC solution (10% DCC in assay buffer) was added to all wells and mixed (total volume 225 μl). The plate was centrifuged at 4000 rpm for 10 minutes at 4° C. 75 μl of the supernatants (i.e.⅓ of total volume) was carefully pipetted into an optiplate. 200 μl of scintillation cocktail were added (Microscint-40, Packard Bioscience. B.V.). The plate was vigorously shaken for approx. 10 minutes and counted on Topcount.
The IC50 values were converted to Ki (the inhibition constant) using the Cheng-Prusoff equation.
Reagents: Assay buffer: 10 mM potassium phosphate buffer pH 7.6 containing 5 mM DTT, 10 mM sodium molybdate, 100 μM EDTA and 0.1% BSA.

glucocorticoid receptors [2] = target: T1, glucocorticoid receptors; assay: GR functional assay using SW1353/MMTV-5 cells (dexamethasone-induced luciferase); format: cell-based; design: contains endogenous glucocorticoid receptors; endogenous in cells; host or cells: SW1353/MMTV-5 (human chondrosarcoma, stably carrying the pMAMneo-Luc reporter)
Experimental: SW1353/MMTV-5 is an adherent human chondrosarcoma cell line that contains endogenous glucocorticoid receptors. It was transfected with a plasmid (pMAMneo-Luc) encoding firefly luciferase located behind a glucocorticoid-responsive element (GRE) derived from a viral promoter (long terminal repeat of mouse mammary tumor virus). A stable cell line SW1353/MMTV-5 was selected with geneticin, which was required to maintain this plasmid.
SW1353/MMTV-5 cells were distributed in 96-well plates and incubated in medium (without geneticin) for 24 hrs (in the absence of CO2).

[3] = Ki from IC50 by Cheng-Prusoff, 2.5 nM 3H-dexamethasone, read-out: GR Binding
[4] = SW1353/MMTV-5 cells, antagonism of 50 nM dexamethasone, luciferase, read-out: GR Functional

Row | SMILES | pKi (glucocorticoid receptors [1]; [3]) | pKi (glucocorticoid receptors [2]; read-out: GR Functional) | pKi (glucocorticoid receptors [2]; [4]) | pKi (glucocorticoid receptors [1]) | pKi (glucocorticoid receptors [2])
1 | O=C(Nc1ccccc1)N1CCC2=Cc3c(cnn3-c3ccc(F)cc3)CC2(Cc2ccc(F)cc2)C1 (centres unmarked) | > 8.00 | 7.00 to 8.00 | – | – | –
2 | CCCN1CCC2=Cc3c(cnn3-c3ccc(F)cc3)CC2(Cc2ccc(F)cc2)C1 (centres unmarked) | 7.00 to 8.00 | < 7.00 | – | – | –
3 | CN1CCN(S(=O)(=O)N2CCC3=Cc4c(cnn4-c4ccc(F)cc4)CC3(Cc3ccc(F)cc3)C2)CC1 (centres unmarked) | 7.00 to 8.00 | < 7.00 | – | – | –
4 | CCCCS(=O)(=O)N1CCC2=Cc3c(cnn3-c3ccc(F)cc3)C[C@]2(COCCOC)C1 | > 8.00 | 7.00 to 8.00 | – | – | –
5 | CC(C)n1ncc2c1C=C1CCN(S(=O)(=O)c3ccc(C(C)(C)C)cc3)C[C@@]1(CN1CCCCC1)C2 | > 8.00 | 7.00 to 8.00 | – | – | –
6 | COc1ccc(CC23Cc4cnn(-c5ccc(F)cc5)c4C=C2CCN(Cc2ccccc2)C3)cc1 (centres unmarked) [drawing 260] | > 8.00 | – | < 7.00 | – | –
7 | CN1CCOc2cc(S(=O)(=O)N3CCC4=Cc5c(cnn5-c5ccc(F)cc5)CC4(Cc4ccc(F)cc4)C3)ccc21 (centres unmarked) | > 8.00 | > 8.00 | – | – | –
8 | O=S(=O)(N1CCOCC1)N1CCC2=Cc3c(cnn3-c3ccc(F)cc3)CC2(Cc2ccc(F)cc2)C1 (centres unmarked) | – | – | – | 7.00 to 8.00 | < 7.00
9 | Cn1cnc(S(=O)(=O)N2CCC3=Cc4c(cnn4-c4ccc(F)cc4)CC3(Cc3ccc(F)cc3)C2)c1 (centres unmarked) | > 8.00 | < 7.00 | – | – | –
10 | COCCCOC[C@]12Cc3cnn(-c4ccc(F)cc4)c3C=C1CCN(S(=O)(=O)c1ccc(C(C)(C)C)cc1)C2 | > 8.00 | > 8.00 | – | – | –
11 | CC(C)(C)c1ccc(S(=O)(=O)N2CCC3=Cc4c(cnn4CC(F)(F)F)C[C@]3(CN3CCCC3)C2)cc1 | 7.00 to 8.00 | < 7.00 | – | – | –
12 | CC(C)(C)c1ccc(S(=O)(=O)N2CCC3=Cc4c(cnn4-c4ccc(F)cc4)CC3(Cc3ccccc3)C2)cc1 (centres unmarked) [drawing 249] | > 8.00 | – | 7.00 to 8.00 | – | –
13 | O=S(=O)(c1ccc(N2CCOCC2)cc1)N1CCC2=Cc3[nH]ncc3CC2(Cc2ccccc2)C1 (centres unmarked) [drawing 246] | > 8.00 | < 7.00 | – | – | –
14 | Cc1ccc(S(=O)(=O)N2CCC3=Cc4c(cnn4-c4ccc(F)cc4)CC3(Cc3ccc(F)cc3)C2)cc1 (centres unmarked) | > 8.00 | 7.00 to 8.00 | – | – | –
15 | COC[C@]12Cc3cnn(-c4ccc(F)cc4)c3C=C1CCN(S(=O)(=O)c1ccc(C(C)(C)C)cc1)C2 | > 8.00 | > 8.00 | – | – | –
16 | CC(C)(C)c1ccc(S(=O)(=O)N2CCC3=Cc4c(cnn4-c4ccc(F)cc4)C[C@]3(C(=O)N3CCOCC3)C2)cc1 | 7.00 to 8.00 | < 7.00 | – | – | –
17 | CC(C)(C)c1ccc(S(=O)(=O)N2CCC3=Cc4c(cnn4-c4ccncc4)C[C@]3(C)C2)cc1 | > 8.00 | < 7.00 | – | – | –
18 | Cc1ccc(S(=O)(=O)N2CCC3=Cc4c(cnn4-c4ccc(F)cc4)C[C@]3(CN3CCCC3)C2)cc1 | > 8.00 | > 8.00 | – | – | –
19 | CC(C)(C)c1ccc(S(=O)(=O)N2CCC3=Cc4c(cnn4-c4ccc(F)cc4)C[C@]3(CNCCO)C2)cc1 | > 8.00 | 7.00 to 8.00 | – | – | –
20 | COCCOC[C@]12Cc3cnn(-c4ccc(F)cc4)c3C=C1CCN(S(=O)(=O)c1ccc(F)cc1)C2 | > 8.00 | > 8.00 | – | – | –
21 | COC[C@]12Cc3cnn(-c4ccc(F)cc4)c3C=C1CCN(S(=O)(=O)c1ccccc1)C2 | > 8.00 | 7.00 to 8.00 | – | – | –
22 | COCCOC[C@]12Cc3cnn(-c4ccc(F)cc4)c3C=C1CCN(S(=O)(=O)c1ccc(C(C)(C)C)cc1)C2 | > 8.00 | > 8.00 | – | – | –
23 | CC(C)(C)c1ccc(CN2CCC3=Cc4c(cnn4-c4ccc(F)cc4)CC3(Cc3ccc(F)cc3)C2)cn1 (centres unmarked) | > 8.00 | < 7.00 | – | – | –

Row | SMILES | pKi (glucocorticoid receptors [1]; [3]) | pKi (glucocorticoid receptors [2]; read-out: GR Functional) | pKi (glucocorticoid receptors [2]; [4]) | pKi (glucocorticoid receptors [1]) | pKi (glucocorticoid receptors [2])
24 | CC(C)(C)c1ccc(S(=O)(=O)N2CCC3=Cc4c(cnn4-c4ccc(F)cc4)C[C@]3(COCCN3CCOCC3)C2)cc1 | 7.00 to 8.00 | < 7.00 | – | – | –
25 | O=S(=O)(c1ccccc1F)N1CCC2=Cc3c(cnn3-c3ccc(F)cc3)C[C@]2(CN2CCOCC2)C1 | > 8.00 | 7.00 to 8.00 | – | – | –
26 | COC[C@]12Cc3cnn(-c4ccc(F)cc4)c3C=C1CCN(S(=O)(=O)N(C)C)C2 | 7.00 to 8.00 | < 7.00 | – | – | –
27 | Cn1cc2c(n1)C=C1CCN(S(=O)(=O)c3ccc(C(C)(C)C)cc3)CC1(Cc1ccccc1)C2 (centres unmarked) [drawing 248] | > 8.00 | – | < 7.00 | – | –
28 | CC(C)(C)c1ccc(S(=O)(=O)N2CCC3=Cc4c(cnn4-c4ccc(S(N)(=O)=O)cc4)CC3(Cc3ccccc3)C2)cc1 (centres unmarked) [drawing 256] | 7.00 to 8.00 | – | < 7.00 | – | –
29 | O=S(=O)(c1ccc(N2CCOCC2)cc1)N1CCC2=Cc3[nH]ncc3CC2(Cc2ccccc2)C1 (centres unmarked) [drawing 230] | > 8.00 | – | < 7.00 | – | –
30 | CC(C)(C)c1ccc(S(=O)(=O)N2CCC3=Cc4c(cnn4-c4ccc(F)cc4)C[C@]3(C(=O)N3CCCC3)C2)cc1 | > 8.00 | 7.00 to 8.00 | – | – | –
31 | COCCOC[C@]12Cc3cnn(-c4ccc(F)cc4)c3C=C1CCN(S(=O)(=O)c1ccccc1)C2 | > 8.00 | > 8.00 | – | – | –
32 | CC(C)(C)c1ccc(S(=O)(=O)N2CCC3=Cc4c(cnn4Cc4ccccc4)CC3(Cc3ccccc3)C2)cc1 (centres unmarked) [drawing 237] | > 8.00 | < 7.00 | – | – | –
33 | CC(C)(C)c1ccc(S(=O)(=O)N2CCC3=Cc4c(cnn4-c4ccc(F)cc4)C[C@]3(C(O)c3ccccc3)C2)cc1 (some centres unmarked) | 7.00 to 8.00 | < 7.00 | – | – | –
34 | CC(C)(C)c1ccc(S(=O)(=O)N2CCC3=Cc4c(cnn4-c4ccc(F)cc4)CC3(Cc3ccccc3)C2)cc1 (centres unmarked) [drawing 233] | > 8.00 | 7.00 to 8.00 | – | – | –
35 | COc1ccc(CC23Cc4cnn(-c5ccc(F)cc5)c4C=C2CCN(Cc2ccccc2)C3)cc1 (centres unmarked) [drawing 244] | > 8.00 | < 7.00 | – | – | –
36 | CC(C)(C)c1ccc(S(=O)(=O)N2CCC3=Cc4[nH]ncc4CC3(Cc3ccccc3)C2)cc1 (centres unmarked) [drawing 245] | > 8.00 | 7.00 to 8.00 | – | – | –
37 | COC[C@]12Cc3cnn(-c4ccc(F)cc4)c3C[C@@H]1CCN(S(=O)(=O)c1ccccc1)C2 | 7.00 to 8.00 | < 7.00 | – | – | –
38 | Cc1ccc(S(=O)(=O)N2CCC3=Cc4c(cnn4-c4ccc(F)cc4)C[C@]3(CO)C2)cc1 | > 8.00 | 7.00 to 8.00 | – | – | –
39 | CCCCn1ncc2c1C=C1CCN(S(=O)(=O)c3ccc(C(C)(C)C)cc3)C[C@@]1(CN1CCCCC1)C2 | > 8.00 | 7.00 to 8.00 | – | – | –
40 | Fc1ccc(-n2ncc3c2C=C2CCN(Cc4ccccc4)CC2(Cc2ccccc2)C3)cc1 (centres unmarked) [drawing 258] | 7.00 to 8.00 | – | < 7.00 | – | –
41 | CN(C)C(=O)CN1CCC2=Cc3c(cnn3-c3ccc(F)cc3)CC2(Cc2ccccc2)C1 (centres unmarked) | < 7.00 | < 7.00 | – | – | –
42 | O=S(=O)(N1CCCCC1)N1CCC2=Cc3c(cnn3-c3ccc(F)cc3)CC2(Cc2ccc(F)cc2)C1 (centres unmarked) | 7.00 to 8.00 | < 7.00 | – | – | –
43 | O=S(=O)(c1ccccc1)N1CCC2=Cc3c(cnn3-c3ccc(F)cc3)C[C@]2(CN2CCCCC2)C1 | – | – | – | > 8.00 | 7.00 to 8.00
44 | C[C@]12Cc3cnn(-c4ccc(F)cc4)c3C=C1CCN(S(=O)(=O)c1ccc(N)cc1)C2 | 7.00 to 8.00 | < 7.00 | – | – | –
45 | Fc1ccc(CC23Cc4cnn(-c5ccc(F)cc5)c4C=C2CCN(Cc2cccnc2)C3)cc1 (centres unmarked) | – | – | – | 7.00 to 8.00 | < 7.00
46 | COCCOC[C@]12Cc3cnn(C)c3C=C1CCN(S(=O)(=O)c1ccc(C(C)(C)C)cc1)C2 | 7.00 to 8.00 | < 7.00 | – | – | –
